In ChEMBL document CHEMBL4049386, “Discovery of an Inhibitor of the Proteasome Subunit Rpn11” (J Med Chem, 2017):
Activity calls are given as the source filed them. No cut-off for these calls is given here.

Columns and labels:
[1] = biological target: 72 kDa type IV collagenase (Homo sapiens, UniProt P08253); test: Inhibition of recombinant human MMP2 catalytic domain (Tyr110 to Asp452 residues) expressed in yeast using Mca-Pro-Leu-Gly-Leu-Dpa-Ala-Arg-NH2.AcOH as substrate preincubated for 30 mins followed by substrate addition measured every minute for 20 mins by fluorescence assay
[2] = biological target: T1, 26S proteasome non-ATPase regulatory subunit 14 (Homo sapiens, UniProt O00487); test: Inhibition of 26S proteasome regulatory subunit RPN11 deubiquitinating activity in human erythrocytes using Ub4-pepOG protein substrate preincubated for 1 hr followed by substrate addition measured after 80 mins by fluorescence polarization assay
Histone deacetylase 1 = Histone deacetylase 1 (Homo sapiens, UniProt Q13547); test: Inhibition of full length recombinant human C-terminal His/FLAG-tagged HDAC1 expressed in baculovirus expression system using substrate 3 preincubated for 5 mins followed by substrate addition measured after 30 mins by fluorescence assay
[3] = biological target: T2, Protein deacetylase HDAC6 (Homo sapiens, UniProt Q9UBN7); test: Inhibition of full length recombinant human N-terminal GST-tagged HDAC6 expressed in baculovirus expression system using substrate 3 preincubated for 5 mins followed by substrate addition measured after 30 mins by fluorescence assay
T2 sequence (Q9UBN7 whole entry): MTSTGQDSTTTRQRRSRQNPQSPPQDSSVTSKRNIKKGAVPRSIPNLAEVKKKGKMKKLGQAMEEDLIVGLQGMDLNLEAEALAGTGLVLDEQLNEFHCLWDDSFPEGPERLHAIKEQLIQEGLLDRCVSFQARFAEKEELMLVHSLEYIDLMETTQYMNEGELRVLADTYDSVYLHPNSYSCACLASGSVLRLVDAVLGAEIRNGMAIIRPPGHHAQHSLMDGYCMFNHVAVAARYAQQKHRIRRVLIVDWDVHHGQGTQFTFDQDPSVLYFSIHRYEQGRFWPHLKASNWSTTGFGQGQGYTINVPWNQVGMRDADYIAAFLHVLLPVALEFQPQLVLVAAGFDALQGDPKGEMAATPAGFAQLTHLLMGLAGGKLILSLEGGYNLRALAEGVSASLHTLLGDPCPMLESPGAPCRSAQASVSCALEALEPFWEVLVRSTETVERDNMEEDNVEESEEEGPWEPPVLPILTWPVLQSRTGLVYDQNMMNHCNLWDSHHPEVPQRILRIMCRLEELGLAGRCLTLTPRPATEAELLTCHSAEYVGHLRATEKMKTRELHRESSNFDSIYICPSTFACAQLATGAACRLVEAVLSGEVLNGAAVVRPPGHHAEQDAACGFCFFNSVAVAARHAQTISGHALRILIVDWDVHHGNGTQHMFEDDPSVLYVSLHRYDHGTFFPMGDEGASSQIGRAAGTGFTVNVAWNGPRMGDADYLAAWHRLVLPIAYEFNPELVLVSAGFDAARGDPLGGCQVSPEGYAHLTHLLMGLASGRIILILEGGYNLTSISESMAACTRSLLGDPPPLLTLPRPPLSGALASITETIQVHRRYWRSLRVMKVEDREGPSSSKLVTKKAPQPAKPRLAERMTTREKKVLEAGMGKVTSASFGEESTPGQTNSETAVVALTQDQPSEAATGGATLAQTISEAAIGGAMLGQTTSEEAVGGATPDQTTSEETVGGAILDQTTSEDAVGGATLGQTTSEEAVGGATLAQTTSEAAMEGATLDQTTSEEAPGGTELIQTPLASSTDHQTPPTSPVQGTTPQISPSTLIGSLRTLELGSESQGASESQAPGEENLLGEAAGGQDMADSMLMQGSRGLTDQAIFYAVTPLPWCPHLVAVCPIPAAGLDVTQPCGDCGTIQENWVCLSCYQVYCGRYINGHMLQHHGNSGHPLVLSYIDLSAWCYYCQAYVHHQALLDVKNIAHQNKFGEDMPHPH

[4] = biological target: T3, Polyunsaturated fatty acid 5-lipoxygenase (Homo sapiens, UniProt P09917); test: Inhibition of recombinant human 5-LO expressed in baculovirus infected sf9 cells using arachidonic acid as substrate preincubated for 10 mins followed by substrate addition measured every minute for 20 mins by H2DCFDA dye based fluorescence assay
T3 sequence (P09917 whole entry): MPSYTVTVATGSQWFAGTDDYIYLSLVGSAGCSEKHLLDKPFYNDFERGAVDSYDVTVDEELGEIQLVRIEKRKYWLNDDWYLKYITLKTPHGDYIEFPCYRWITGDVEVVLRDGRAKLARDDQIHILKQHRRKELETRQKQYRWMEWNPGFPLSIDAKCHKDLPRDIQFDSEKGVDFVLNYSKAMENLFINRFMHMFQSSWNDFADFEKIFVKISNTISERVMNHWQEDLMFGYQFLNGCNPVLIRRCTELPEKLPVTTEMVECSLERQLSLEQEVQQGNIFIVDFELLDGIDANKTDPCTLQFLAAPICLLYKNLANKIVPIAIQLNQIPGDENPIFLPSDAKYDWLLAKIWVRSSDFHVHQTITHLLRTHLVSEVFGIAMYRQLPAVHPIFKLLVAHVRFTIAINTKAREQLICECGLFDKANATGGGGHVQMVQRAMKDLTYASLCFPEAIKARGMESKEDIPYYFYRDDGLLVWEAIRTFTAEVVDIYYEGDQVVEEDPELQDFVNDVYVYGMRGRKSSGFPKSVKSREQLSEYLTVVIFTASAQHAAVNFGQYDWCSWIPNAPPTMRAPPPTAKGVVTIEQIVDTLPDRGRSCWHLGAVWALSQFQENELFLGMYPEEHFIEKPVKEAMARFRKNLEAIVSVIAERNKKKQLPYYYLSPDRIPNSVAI

Carbonic anhydrase 2 = Carbonic anhydrase 2 (Homo sapiens, UniProt P00918); test: Inhibition of human carbonic anhydrase-2 using p-nitrophenylacetate as substrate preincubated for 10 mins followed by substrate addition
[5] = biological target: COP9 signalosome complex subunit 5 (Homo sapiens, UniProt Q92905); test: Inhibition of CSN5 (unknown origin) using SCFskp2-Nedd8OG as substrate after 1 hr by fluorescence polarization assay
HCT-116 = test: cells; conditions: Homo sapiens, HCT-116, 72 h
Description: Antiproliferative activity against human HCT116 cells after 72 hrs by Cell Titer-Glo assay

A549 = test: Antiproliferative activity against human A549 cells after 72 hrs by Cell Titer-Glo assay; format: functional, cell-based; conditions: A549, 72 h
HEK-293T = test: Antiproliferative activity against human 293T cells after 72 hrs by Cell Titer-Glo assay; format: functional, cell-based
[6] = Aqueous solubility of the compound; format: physicochemical; conditions: buffer
[7] = biological target: Lys-63-specific deubiquitinase BRCC36 (Homo sapiens) (UniProt P46736); test: Inhibition of BRCC36 (unknown origin) using DiUbK63TAMRA as substrate by fluorescence assay
[8] = biological target: T1, 26S proteasome non-ATPase regulatory subunit 14; conditions: 200 uM
Description: Inhibition of 26S proteasome regulatory subunit RPN11 deubiquitinating activity in human erythrocytes at 200 uM using Ub4-pepOG protein substrate preincubated for 1 hr followed by substrate addition measured after 80 mins by fluorescence polarization assay relative to control

STAM-binding protein = biological target: T4, STAM-binding protein (Homo sapiens, UniProt O95630); test: Inhibition of AMSH (unknown origin) using DiUbK63TAMRA as substrate by fluorescence assay
T4 sequence (O95630 whole entry): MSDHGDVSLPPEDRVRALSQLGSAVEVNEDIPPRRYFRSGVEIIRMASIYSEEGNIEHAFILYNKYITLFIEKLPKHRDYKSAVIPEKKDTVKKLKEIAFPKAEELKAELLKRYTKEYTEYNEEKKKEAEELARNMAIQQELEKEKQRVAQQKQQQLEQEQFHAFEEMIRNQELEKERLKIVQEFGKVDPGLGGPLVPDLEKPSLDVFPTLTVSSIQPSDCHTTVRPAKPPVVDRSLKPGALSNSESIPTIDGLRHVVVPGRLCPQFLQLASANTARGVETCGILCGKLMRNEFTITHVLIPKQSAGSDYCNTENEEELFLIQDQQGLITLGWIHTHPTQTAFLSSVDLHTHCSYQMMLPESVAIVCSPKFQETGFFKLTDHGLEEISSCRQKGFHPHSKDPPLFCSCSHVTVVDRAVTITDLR

T1 sequence (O00487 whole entry): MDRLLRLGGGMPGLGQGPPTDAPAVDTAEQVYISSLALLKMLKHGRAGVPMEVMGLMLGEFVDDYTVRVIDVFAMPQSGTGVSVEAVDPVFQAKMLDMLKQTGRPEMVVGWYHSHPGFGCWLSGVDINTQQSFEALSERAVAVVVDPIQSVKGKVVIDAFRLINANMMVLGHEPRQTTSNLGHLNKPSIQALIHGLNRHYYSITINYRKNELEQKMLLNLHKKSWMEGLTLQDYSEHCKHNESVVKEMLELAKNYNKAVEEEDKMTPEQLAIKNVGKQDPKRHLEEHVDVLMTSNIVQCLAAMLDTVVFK
Histone deacetylase 1, sequence (Q13547 whole entry): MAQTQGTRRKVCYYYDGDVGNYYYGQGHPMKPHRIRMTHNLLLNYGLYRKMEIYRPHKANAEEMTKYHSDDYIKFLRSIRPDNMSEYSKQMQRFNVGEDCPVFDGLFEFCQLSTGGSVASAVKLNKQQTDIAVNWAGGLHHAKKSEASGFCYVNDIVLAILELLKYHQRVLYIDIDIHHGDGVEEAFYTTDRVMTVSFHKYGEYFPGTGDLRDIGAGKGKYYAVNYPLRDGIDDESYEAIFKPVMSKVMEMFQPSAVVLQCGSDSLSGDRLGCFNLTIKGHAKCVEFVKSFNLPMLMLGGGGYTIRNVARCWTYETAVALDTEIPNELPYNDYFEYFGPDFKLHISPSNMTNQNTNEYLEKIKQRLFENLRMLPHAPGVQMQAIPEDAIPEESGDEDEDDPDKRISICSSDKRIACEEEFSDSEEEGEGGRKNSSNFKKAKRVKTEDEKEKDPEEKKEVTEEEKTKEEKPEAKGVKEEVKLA
COP9 signalosome complex subunit 5, sequence (Q92905 whole entry, one chain of several): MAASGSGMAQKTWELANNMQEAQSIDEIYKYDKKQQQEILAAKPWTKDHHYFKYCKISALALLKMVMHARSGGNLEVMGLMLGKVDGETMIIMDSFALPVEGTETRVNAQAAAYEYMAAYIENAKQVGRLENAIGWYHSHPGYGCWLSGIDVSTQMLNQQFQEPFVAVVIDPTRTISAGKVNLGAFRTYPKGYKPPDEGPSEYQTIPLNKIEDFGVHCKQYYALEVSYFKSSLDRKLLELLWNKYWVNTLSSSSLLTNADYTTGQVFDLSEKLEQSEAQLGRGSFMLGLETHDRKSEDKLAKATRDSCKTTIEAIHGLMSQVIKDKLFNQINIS
72 kDa type IV collagenase, sequence (P08253 whole entry, the tested form may be a part): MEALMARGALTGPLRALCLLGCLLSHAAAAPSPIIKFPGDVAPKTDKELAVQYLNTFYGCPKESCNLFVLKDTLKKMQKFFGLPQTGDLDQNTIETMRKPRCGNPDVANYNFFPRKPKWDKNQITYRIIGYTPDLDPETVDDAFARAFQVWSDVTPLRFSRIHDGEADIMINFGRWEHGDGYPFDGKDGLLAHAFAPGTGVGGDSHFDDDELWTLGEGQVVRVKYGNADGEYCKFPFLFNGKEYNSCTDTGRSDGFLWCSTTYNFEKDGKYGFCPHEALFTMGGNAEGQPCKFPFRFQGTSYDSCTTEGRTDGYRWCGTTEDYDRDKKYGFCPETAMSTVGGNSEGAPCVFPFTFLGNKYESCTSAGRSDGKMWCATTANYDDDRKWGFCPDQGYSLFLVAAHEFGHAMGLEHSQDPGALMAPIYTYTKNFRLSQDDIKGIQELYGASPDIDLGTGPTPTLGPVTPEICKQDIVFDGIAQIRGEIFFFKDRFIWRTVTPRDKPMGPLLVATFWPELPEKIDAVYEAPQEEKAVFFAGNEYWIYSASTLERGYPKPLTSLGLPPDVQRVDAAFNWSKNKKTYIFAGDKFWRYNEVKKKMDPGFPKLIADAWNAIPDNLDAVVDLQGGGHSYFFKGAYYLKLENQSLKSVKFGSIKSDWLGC
Lys-63-specific deubiquitinase BRCC36 (Homo sapiens), sequence (P46736 whole entry): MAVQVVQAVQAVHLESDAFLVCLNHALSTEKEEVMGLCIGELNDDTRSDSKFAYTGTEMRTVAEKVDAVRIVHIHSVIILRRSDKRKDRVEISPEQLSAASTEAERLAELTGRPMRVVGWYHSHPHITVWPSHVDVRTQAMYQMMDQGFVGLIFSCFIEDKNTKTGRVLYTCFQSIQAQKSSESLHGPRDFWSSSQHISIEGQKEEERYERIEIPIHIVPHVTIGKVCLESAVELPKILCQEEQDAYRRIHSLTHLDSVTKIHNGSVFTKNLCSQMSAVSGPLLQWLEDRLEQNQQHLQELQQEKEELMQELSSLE

In the case of `Cc1cc(S)c2ncccc2c1`, the IC50 [1] is reported as over 200 µM, the IC50 [2] is reported as 0.9 µM and the IC50 (Histone deacetylase 1) is reported as over 50 µM. The IC50 [3] was over 50 µM, the IC50 [4] was over 200 µM and the IC50 (Carbonic anhydrase 2) was over 100 µM.
Compound `Cc1ccnc2c(S)cccc12` has an IC50 [1] of over 200 µM, an IC50 [2] of 5.7 µM and an IC50 [5] of 25.1 µM. The IC50 (Histone deacetylase 1) was over 200 µM, the IC50 [3] was over 200 µM and the IC50 [4] was over 200 µM. For the same compound, the IC50 (Carbonic anhydrase 2) was over 200 µM and the IC50 (HCT-116) was over 10 µM.
Work on `Cc1ccc(S)c2ncccc12` yielded an IC50 [1] of over 200 µM, an IC50 [2] of 2.5 µM and an IC50 [5] of 2.9 µM. The IC50 (Histone deacetylase 1) was over 200 µM, the IC50 [3] was over 200 µM and the IC50 [4] was over 200 µM. For the same compound, the IC50 (Carbonic anhydrase 2) was over 200 µM and the IC50 (HCT-116) was 3.4 µM.
With `O=C(NCCc1nccs1)c1cnc2c(SSc3cccc4cc(C(=O)NCCc5nccs5)cnc34)cccc2c1` the IC50 (A549) was 3.8 µM, the IC50 (HEK-293T) was 2.1 µM and the solubility [6] was “Soluble”.
With `CC(C)C[C@H](NC(=O)[C@H](Cc1ccccc1)NC(=O)c1cnccn1)B(O)O` [BORTEZOMIB] the IC50 (A549) was 0.092 µM and the IC50 (HEK-293T) was 0.012 µM.
For `Sc1cccc2cccnc12`, the IC50 [1] was over 200 µM, the IC50 [2] was 2.5 to 2.8 µM and the IC50 [5] was 10.3 µM. It also gave an IC50 (Histone deacetylase 1) of over 200 µM, an IC50 [3] of over 200 µM and an IC50 [4] of over 200 µM. The IC50 (Carbonic anhydrase 2) was over 200 µM, the inhibition [7] was “Active” and the inhibition [8] was 100%. The IC50 (HCT-116) was 1.6 µM.
`O=C(Nc1nccs1)c1cnc2c(SSc3cccc4cc(C(=O)Nc5nccs5)cnc34)cccc2c1` gave an IC50 [5] of 20 µM, an IC50 (STAM-binding protein) of 4.7 µM and an IC50 (A549) of 5.8 µM. For the same compound, the IC50 (HEK-293T) was 6.4 µM and the solubility [6] was “Soluble”.
Compound `Cc1cnc2c(S)cccc2c1` has an IC50 [1] of over 200 µM, an IC50 [2] of 1.6 µM and an IC50 [5] of 7.1 µM. The IC50 (Histone deacetylase 1) was over 50 µM, the IC50 [3] was over 200 µM and the IC50 [4] was over 200 µM. The IC50 (Carbonic anhydrase 2) was over 40 µM and the IC50 (HCT-116) was 2.6 µM.
